Laboratory results taken from patent publication US11530196B2, “Pyrimidine compound acting on EGFR and ERBB2” (CHINA RESOURCES PHARMACEUTICAL HOLDINGS COMPANY LIMITED, priority 2019, dated 2022).

Legend:
[1] = Compound stability test in plasma (mouse); type: in vitro ADME
Protocol: (§1) In this study, mouse, SD rat, Beagle, cynomolgus monkey and human plasma were used as materials to investigate the stability of the tested compounds in the plasma of the above five species. Propantheline, Enalapril, Bisacodyl and Procaine were used as control compounds.
(§2) The experimental conditions for the test compounds were as follows: • test concentration: 2 μM (DMSO ≤0.5%); • incubation times: 0, 10, 30, 60 and 120 minutes; • frozen plasma (from multiple species) was used in the test system; • incubation conditions: 37° C.
(§3) The mixed frozen plasma was thawed in a 37° C. water bath prior to the experiment. Plasma was centrifuged at 4000 rpm for 5 minutes and cleared if there was a clot. The pH will be adjusted to 7.4±0.1 if required.
(§4) The intermediate solution of 1 mM compound and positive control was prepared by diluting 10 mM stock solution with 90 μL of dimethyl sulfoxide. 100 μM solution was prepared by diluting 20 μL of intermediate solution (1 mM) with 180 μL of 45% methanol/water.
(§5) 2 μL of 100 μM solution was added to 98 μL of blank plasma to achieve a final concentration of 2 μM (in duplicate) of the sample, and the sample was incubated in a 37° C. water bath. At each time point (0, 10, 30, 60 and 120 min), 400 μL of termination solution (200 ng/mL toluenesulfonylurea and 200 ng/mL labetalol, 50% ACN/MeOH) was added to precipitate the proteins and mixed thoroughly. […]

[2] = Pharmacokinetic study, single intravenous and oral administration in mice; type: in vivo; details: mouse, plasma
Protocol: The purpose of this experiment was to investigate the pharmacokinetics (PK) of the compounds in different species after single intravenous and single oral administration of the test compounds.
After intravenous or oral administration, blood samples were collected from the animals, and the actual time of blood collection was recorded. After the blood samples were collected, the samples were immediately transferred to the labelled centrifuge tube containing K2-EDTA, and then centrifuged to obtain plasma. Plasma was transferred to pre-cooled centrifuge tubes, quick-frozen in dry ice and stored in an ultra-low temperature refrigerator at −70±10° C. until LC-MS/MS analysis was performed.
The plasma drug concentration data of the compounds were processed using pharmacokinetic software with a non-compartmental model. The peak concentration (Cmax) and time to peak (Tmax), as well as the quantifiable end time were obtained directly from the plasma concentration-time curve. The following pharmacokinetic parameters were calculated using the log-linear trapezoidal method: half-life (T1/2), apparent volume of distribution (Vdss), and clearance (Cl), area under the time-plasma concentration curve from point 0 to the end time point (AUC0-last), and initial concentration (C0).

[3] = test system: LU0387 EGFR-H773_V774insNPH cells; experiment: Anti-proliferation activity test of LU-0387 cells; type: cell-based; details: Homo sapiens, 96 h, CTG, 4 days, read-out: Cell IC50 (anti-proliferation)
Protocol: (1) Anti-Proliferation Activity Test of LU-0387 (EGFR Exon 20 NPH Insertion Mutation) Cells
Fetal bovine serum FBS, CellTiter Glo® luminescent cell activity assay, 96-well clear flat-bottomed black-walled plate
A cell counter was used for cell counting, and cell viability was detected to ensure that the viability of each cell line was above 90%. Cell suspension was added to a 96-well plate to bring the cell density to the specified concentration and incubated overnight at 37° C., 5% CO2 and 95% humidity. The culture medium was added to the T0 plate, the CTG reagent was melted and the cell plate was equilibrated at room temperature. CTG solution was added to each well. The cell plate was vibrated to lyse the cells and the cold light values were read. The compound to be test and the control drug were diluted in a gradient to obtain a 10-fold solution. 10 μL of drug solution was added to each well of a 96-well plate that had been inoculated with cells. The incubation was continued at 37° C., 5% CO2, 95% humidity for 4 days, and CTG analysis was performed and cold light values were read separately. The data were analyzed using GraphPad Prism 5.0 software and IC50 values were calculated.
The IC50 data of the compounds of the present disclosure against EGFR exon 20 insertion mutation NPH in LU-0387 cells are shown in Table 4.

[4] = Compound stability test in plasma (monkey); type: in vitro ADME, cynomolgus monkey
Protocol: as §1, §2, §3, §4, §5

[5] = target: HER2 exon 20 insertion (V777_G778ins > CG) enzyme (Homo sapiens, UniProt P04626, INS777CG); experiment: Kinase assay (HTRF KinEASE TK), HER2 exon 20 insertion; type: biochemical
Source text: To detect the inhibitory effect of compounds on EGFR WT, EGFR (D770_N771insNPG), ERBB2 (V777_G778ins>CG), EGFR T790M/L858R enzyme activities
EGFR WT (Invitrogen, Cat. No. PR7295B), EGFR [L858R] (Invitrogen, Cat. No. PR7447A), EGFR [d746-750] (Invitrogen, Cat. No. PV6179), ATP (Sigma, Cat. No. A7699-1G), DMSO (Sigma, Cat. No. D2650), DTT (Sigma, Cat. No. 43815), 384-well plate, compound dilution plate (Greiner, Cat. No. 781280), 384-well plate, test plate (Perkin Elmer, Cat. No. 6007299), HTRF KinEASE TK Kit (Cisbio, Cat. No. 62TK0PEB), magnesium chloride (Sigma, Cat. No. M1028), Orthovanadate (Sigma, Cat. No. 56508), BSA (Sigma, Cat. No. A7030), HEPES (Life technology, Cat. No. 11344-041).
The final test concentrations of the test compounds ranged from 10 μM to 0.17 nM in 3-fold gradient dilutions at 11 concentrations.
The preparation of the buffer, 50 mM HEPES (pH 7.5), 0.01% BSA, 5 mM MgCl2, and 0.1 mM Orthovanadate were contained in the buffer. After the preparation of the buffer, the enzyme and substrate were mixed with pre-diluted prepared compounds of different concentrations, and the mixture was placed at room temperature for 15 minutes. […] After the reaction was completed, the antibody was added to the assay, incubated at room temperature for 60 minutes and then detected by Envision (plate reading instrument), and data were collected. […]

[6] = pH 7.4, 37° C., read-out: In vitro plasma half-life T1/2

Chain of HER2 exon 20 insertion (V777_G778ins > CG) enzyme (P04626 with tags, fused parts or gaps INS777CG limits assumed): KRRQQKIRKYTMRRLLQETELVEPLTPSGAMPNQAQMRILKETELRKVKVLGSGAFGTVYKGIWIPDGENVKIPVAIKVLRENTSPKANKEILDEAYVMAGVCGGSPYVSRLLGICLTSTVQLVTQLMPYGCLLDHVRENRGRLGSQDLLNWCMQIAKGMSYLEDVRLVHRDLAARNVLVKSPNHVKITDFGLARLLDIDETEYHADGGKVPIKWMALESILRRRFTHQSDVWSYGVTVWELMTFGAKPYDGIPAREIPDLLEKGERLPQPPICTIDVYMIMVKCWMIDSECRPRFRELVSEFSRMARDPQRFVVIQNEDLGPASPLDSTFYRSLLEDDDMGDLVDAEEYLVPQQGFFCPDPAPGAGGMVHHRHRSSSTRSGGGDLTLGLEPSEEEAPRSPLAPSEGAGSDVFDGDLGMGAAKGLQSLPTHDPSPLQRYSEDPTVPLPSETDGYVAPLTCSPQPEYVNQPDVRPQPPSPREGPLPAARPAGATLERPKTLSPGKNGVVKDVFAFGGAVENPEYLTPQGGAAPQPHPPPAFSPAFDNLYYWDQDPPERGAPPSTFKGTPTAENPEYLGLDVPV

C=CC(=O)Nc1cc(Nc2ncc(C(=O)OC(C)C)c(-c3cn(OC)c4ccccc34)n2)c(OC)cc1N(C)CCN(C)C.CS(=O)(=O)O [Compound 1]
In vitro plasma stability (Residual percentage) ([1]; 120 minutes, 2 μM, 37° C.): 45%
half-life at 2 µM [1, 6]: 1.81 h
clearance ([2]; intravenous injection 2 mg/kg): 57.7 mL/min/kg
half-life ([2]; intravenous injection 2 mg/kg): 1.76 h
AUC ([2]; intravenous injection 2 mg/kg, read-out: Exposure of AUC): 0.884 µM·h
Vd ([2]; intravenous injection 2 mg/kg, read-out: Vdss): 6.95 L/kg
Cmax ([2]; oral 10 mg/kg): 300 nM
Tmax ([2]; oral 10 mg/kg): 2 h
bioavailability ([2]; oral 10 mg/kg): 22.1%
AUC(0-t) ([2]; oral 10 mg/kg, read-out: Exposure of AUC0-last): 1.42 µM·h
IC50 [3]: 25.6 nM
In vitro plasma stability (Residual percentage) ([4]; 120 minutes, 2 μM, 37° C.): 93.7%
half-life at 2 µM [4, 6]: > 4.82 h
IC50 [5]: 1.86 nM
